# Earlier results in PubChem BioAssay AID1259409 (Chemical Carcinogenesis Research Information System (CCRIS), 2018).
# Test system: rodent chemically induced tumor inhibition, incidence and multiplicity
# Experiment: CCRIS tumor inhibitor studies
# Conditions: Route [Inhibitor]: ORAL, Species: RAT
compound,measurement,setting,value
CCCCCCCCCCCCCCCC(=O)CC(=O)CCCCCCCCCCCCCCC,"tumour outcome (control, treated, inhibition, significance)","Carcinogen: 2,2'-DIHYDROXY-DI-N-PROPYLNITROSAMINE, 53609-64-6, N-ETHYL-N-HYDROXYETHYLNITROSAMINE, 13147-25-6, 3,2'-DIMETHYL-4-AMINO-, Carcinogen: 2,2'-DIHYDROXY-DI-N-PROPYLNITROSAMINE, 53609-64-6, N-ETHYL-N-HYDROXYETHYLNITROSAMINE, 13147-25-6, 3,2'-DIMETHYL-4-AMINO-, Dose [Inhibitor]: 0, 0.2% IN DIET FOR 32 WK BEGINNING 1 WK POST CARCINOGEN TREATMENT (STUDY DURATION: 36 WK), Strain/Sex: F344/MALE, Target Tissue: Type of Lesion: LARGE INTESTINE: ADENOMA, Dose [Carcinogen]: 1000 MG/KG BW DHPN TWICE, 1500 MG/KG BW EHEN TWICE, 75 MG/KG BW 3 TIMES ADMINISTERED OVER FIRST 3 WK, Promoter: NONE USED","7/14 (50%), 7/15 (47%), 6%, not significant"
same,"tumour outcome (control, treated, inhibition, significance)","Carcinogen: 2,2'-DIHYDROXY-DI-N-PROPYLNITROSAMINE, 53609-64-6, N-ETHYL-N-HYDROXYETHYLNITROSAMINE, 13147-25-6, 3,2'-DIMETHYL-4-AMINO-, Carcinogen: 2,2'-DIHYDROXY-DI-N-PROPYLNITROSAMINE, 53609-64-6, N-ETHYL-N-HYDROXYETHYLNITROSAMINE, 13147-25-6, 3,2'-DIMETHYL-4-AMINO-, Dose [Inhibitor]: 0, 0.2% IN DIET FOR 32 WK BEGINNING 1 WK POST CARCINOGEN TREATMENT (STUDY DURATION: 36 WK), Strain/Sex: F344/MALE, Target Tissue: Type of Lesion: LARGE INTESTINE: CARCINOMA, Dose [Carcinogen]: 1000 MG/KG BW DHPN TWICE, 1500 MG/KG BW EHEN TWICE, 75 MG/KG BW 3 TIMES ADMINISTERED OVER FIRST 3 WK, Promoter: NONE USED","3/14 (21%), 2/15 (13%0, 38%, not significant"
same,"tumour outcome (control, treated, inhibition, significance)","Carcinogen: 2,2'-DIHYDROXY-DI-N-PROPYLNITROSAMINE, 53609-64-6, N-ETHYL-N-HYDROXYETHYLNITROSAMINE, 13147-25-6, 3,2'-DIMETHYL-4-AMINO-, Carcinogen: 2,2'-DIHYDROXY-DI-N-PROPYLNITROSAMINE, 53609-64-6, N-ETHYL-N-HYDROXYETHYLNITROSAMINE, 13147-25-6, 3,2'-DIMETHYL-4-AMINO-, Dose [Inhibitor]: 0, 0.2% IN DIET FOR 32 WK BEGINNING 1 WK POST CARCINOGEN TREATMENT (STUDY DURATION: 36 WK), Strain/Sex: F344/MALE, Target Tissue: Type of Lesion: LIVER: HEPATOCELLULAR CARCINOMA, Dose [Carcinogen]: 1000 MG/KG BW DHPN TWICE, 1500 MG/KG BW EHEN TWICE, 75 MG/KG BW 3 TIMES ADMINISTERED OVER FIRST 3 WK, Promoter: NONE USED","6/14 (43%), 1/15 (7%), 84%, p<0.05"
same,"tumour outcome (control, treated, inhibition, significance)","Carcinogen: 2,2'-DIHYDROXY-DI-N-PROPYLNITROSAMINE, 53609-64-6, N-ETHYL-N-HYDROXYETHYLNITROSAMINE, 13147-25-6, 3,2'-DIMETHYL-4-AMINO-, Carcinogen: 2,2'-DIHYDROXY-DI-N-PROPYLNITROSAMINE, 53609-64-6, N-ETHYL-N-HYDROXYETHYLNITROSAMINE, 13147-25-6, 3,2'-DIMETHYL-4-AMINO-, Dose [Inhibitor]: 0, 0.2% IN DIET FOR 32 WK BEGINNING 1 WK POST CARCINOGEN TREATMENT (STUDY DURATION: 36 WK), Strain/Sex: F344/MALE, Target Tissue: Type of Lesion: LUNG: ADENOMA, Dose [Carcinogen]: 1000 MG/KG BW DHPN TWICE, 1500 MG/KG BW EHEN TWICE, 75 MG/KG BW 3 TIMES ADMINISTERED OVER FIRST 3 WK, Promoter: NONE USED","7/14 (50%), 6/15 (40%), 20%, not significant"
same,"tumour outcome (control, treated, inhibition, significance)","Carcinogen: 2,2'-DIHYDROXY-DI-N-PROPYLNITROSAMINE, 53609-64-6, N-ETHYL-N-HYDROXYETHYLNITROSAMINE, 13147-25-6, 3,2'-DIMETHYL-4-AMINO-, Carcinogen: 2,2'-DIHYDROXY-DI-N-PROPYLNITROSAMINE, 53609-64-6, N-ETHYL-N-HYDROXYETHYLNITROSAMINE, 13147-25-6, 3,2'-DIMETHYL-4-AMINO-, Dose [Inhibitor]: 0, 0.2% IN DIET FOR 32 WK BEGINNING 1 WK POST CARCINOGEN TREATMENT (STUDY DURATION: 36 WK), Strain/Sex: F344/MALE, Target Tissue: Type of Lesion: LUNG: CARCINOMA, Dose [Carcinogen]: 1000 MG/KG BW DHPN TWICE, 1500 MG/KG BW EHEN TWICE, 75 MG/KG BW 3 TIMES ADMINISTERED OVER FIRST 3 WK, Promoter: NONE USED","1/14 (7%), 3/15 (20%, -186%, not significant"
same,"tumour outcome (control, treated, inhibition, significance)","Carcinogen: 2,2'-DIHYDROXY-DI-N-PROPYLNITROSAMINE, 53609-64-6, N-ETHYL-N-HYDROXYETHYLNITROSAMINE, 13147-25-6, 3,2'-DIMETHYL-4-AMINO-, Carcinogen: 2,2'-DIHYDROXY-DI-N-PROPYLNITROSAMINE, 53609-64-6, N-ETHYL-N-HYDROXYETHYLNITROSAMINE, 13147-25-6, 3,2'-DIMETHYL-4-AMINO-, Dose [Inhibitor]: 0, 0.2% IN DIET FOR 32 WK BEGINNING 1 WK POST CARCINOGEN TREATMENT (STUDY DURATION: 36 WK), Strain/Sex: F344/MALE, Target Tissue: Type of Lesion: THYROID GLAND: ADENOMA, Dose [Carcinogen]: 1000 MG/KG BW DHPN TWICE, 1500 MG/KG BW EHEN TWICE, 75 MG/KG BW 3 TIMES ADMINISTERED OVER FIRST 3 WK, Promoter: NONE USED","3/14 (21%), 3/15 (20%), 5%, not significant"
same,"tumour outcome (control, treated, inhibition, significance)","Carcinogen: 2,2'-DIHYDROXY-DI-N-PROPYLNITROSAMINE, 53609-64-6, N-ETHYL-N-HYDROXYETHYLNITROSAMINE, 13147-25-6, 3,2'-DIMETHYL-4-AMINO-, Carcinogen: 2,2'-DIHYDROXY-DI-N-PROPYLNITROSAMINE, 53609-64-6, N-ETHYL-N-HYDROXYETHYLNITROSAMINE, 13147-25-6, 3,2'-DIMETHYL-4-AMINO-, Dose [Inhibitor]: 0, 0.2% IN DIET FOR 32 WK BEGINNING 1 WK POST CARCINOGEN TREATMENT (STUDY DURATION: 36 WK), Strain/Sex: F344/MALE, Target Tissue: Type of Lesion: URINARY BLADDER: CARCINOMA, Dose [Carcinogen]: 1000 MG/KG BW DHPN TWICE, 1500 MG/KG BW EHEN TWICE, 75 MG/KG BW 3 TIMES ADMINISTERED OVER FIRST 3 WK, Promoter: NONE USED","1/14 (7%), 1/15 (7%), 0%, not significant"
same,outcome,"Carcinogen: 2,2'-DIHYDROXY-DI-N-PROPYLNITROSAMINE, 53609-64-6, N-ETHYL-N-HYDROXYETHYLNITROSAMINE, 13147-25-6, 3,2'-DIMETHYL-4-AMINO-, Carcinogen: 2,2'-DIHYDROXY-DI-N-PROPYLNITROSAMINE, 53609-64-6, N-ETHYL-N-HYDROXYETHYLNITROSAMINE, 13147-25-6, 3,2'-DIMETHYL-4-AMINO-, Dose [Inhibitor]: 0, 0.2% IN DIET FOR 32 WK BEGINNING 1 WK POST CARCINOGEN TREATMENT (STUDY DURATION: 36 WK), Strain/Sex: F344/MALE, Target Tissue: Type of Lesion: URINARY BLADDER: PAPILLOMA, Dose [Carcinogen]: 1000 MG/KG BW DHPN TWICE, 1500 MG/KG BW EHEN TWICE, 75 MG/KG BW ADMINISTERED OVER FIRST 3 WK, Promoter: NONE USED","0/14 (0%), 3/15 (20%), -100%, not significant"
same,"tumour outcome (control, treated, inhibition, significance)","Carcinogen: 2,2'-DIHYDROXY-N-PROPYLNITROSAMINE, 53609-64-6, N-ETHYL-N-HYDROXYETHYL- NITROSAMINE, 13147-25-6, 3,2'-DIMETHYL-4-AMI, Carcinogen: 2,2'-DIHYDROXY-N-PROPYLNITROSAMINE, 53609-64-6, N-ETHYL-N-HYDROXYETHYL- NITROSAMINE, 13147-25-6, 3,2'-DIMETHYL-4-AMI, Dose [Inhibitor]: 0, 0.2% IN DIET BEGINNING 1 WK POST LAST CARCINOGEN DOSE AND CONTINUING FOR 32 WK (STUDY DURATION: 36 WK), Strain/Sex: F344/MALE, Target Tissue: Type of Lesion: LUNG: ADENOMA, Dose [Carcinogen]: 1000 MG/KG IP DHPN 2X , 1500 MG/KG GAV EHEN 2X AND 75 MG/KG SC DMAB 3X GIVEN OVER THE INITIAL 3 WK PERIOD AT 3-4 D INTER, Promoter: NONE USED","7/14 (50%), 6/15 (40%), 20%, not calculated"
same,"tumour outcome (control, treated, inhibition, significance)","Carcinogen: 2-AMINO-1-METHYL-6-PHENYLIMIDAZO[4,5-B]PYRIDINE [105650-23-5], Dose [Inhibitor]: 0.1% IN DIET FOR 54 WK (STUDY DURATION: 54 WK), Strain/Sex: F344/DUCRJ/FEMALE, Target Tissue: Type of Lesion: COLON: ADENOMA OR ADENOCARCINOMA, Dose [Carcinogen]: 0.02% IN DIET FOR 54 WK (STUDY DURATION: 54 WK), Promoter: NONE","3/20 (15%), 3/20 (15%), 0%, not significant"
same,"tumour outcome (control, treated, inhibition, significance)","Carcinogen: 2-AMINO-1-METHYL-6-PHENYLIMIDAZO[4,5-B]PYRIDINE [105650-23-5], Dose [Inhibitor]: 0.1% IN DIET FOR 54 WK (STUDY DURATION: 54 WK), Strain/Sex: F344/DUCRJ/FEMALE, Target Tissue: Type of Lesion: MAMMARY GLAND: ADENOMA OR ADENOCARCINOMA, Dose [Carcinogen]: 0.02% IN DIET FOR 54 WK (STUDY DURATION: 54 WK), Promoter: NONE","8/20 (40%), 3/20 (15%), 63%, not significant"
